row,SMILES,melting point [°C]
1,Cc1ccccc1C(CCC(=O)O)Oc1cc(OCc2ccsc2)ccc1C(=O)C(=O)O (racemic),173 to 175
2,Cn1ccnc1Sc1ccc(I)cc1Cl,99 to 101
3,CC(C)Nc1c(-c2ccc(S(C)(=O)=O)cc2)cnn(CC(F)(F)F)c1=O,173 to 174
4,Nc1ncnc2c1ncn2Cc1nc2cc(F)ccc2c(=O)n1-c1ccccc1Cl,217
5,CC(=O)Nc1nc2c(ncn2COC(COC(C)=O)COC(C)=O)c(=O)[nH]1,172
6,O=C1c2ccc(C(F)(F)F)cc2C(=O)c2cc3ccccc3cc21,253 to 254
7,COCCNC(=O)c1cccc(-c2cccc3oc(Cc4ccc(F)c(Cl)c4)cc23)c1,77 to 78
8,CCC1(NC(=O)c2cc(OC)ccn2)CCCCn2c1nc(-c1ccncn1)cc2=O (racemic),200 to 202
9,COc1cc(C(C)C(=O)NCC(COC(=O)C(C)(C)C)Cc2ccc(C)c(C)c2)ccc1NS(C)(=O)=O (stereo not given),54 to 57
10,CC(=O)OC1CSC(Oc2cncc(-c3ccnc(Cl)c3)c2)C(OC(C)=O)C1OC(C)=O (stereo not given),105 to 108
11,COc1ccc(C(=O)Nc2c(C)c(C)c3c(c2C)C(c2ccc(C(C)C)cc2)C(C)(C)O3)cc1 (stereo not given),202 to 205
12,N#Cc1ccc(N2CCC[C@H]2C(N)=O)c2ccccc12,177 to 178
13,CCOC(=O)CCCCSc1nnc(S)s1,53
14,O=C1CC(c2ccccc2)c2cc(C(c3ccc(Cl)cc3)n3ccnc3)ccc2N1 (stereo not given),225
15,NS(=O)(=O)c1ncccc1F,124 to 125
16,Cc1cnc2n1N=C(c1ccc(F)cc1)c1cc3c(cc1C2)OCO3,190
17,CCC(NC(=O)OC)c1ccc(Cl)c2nc3n(c12)CCCN3c1c(Cl)cc(Cl)cc1Cl (stereo not given),231 to 233
18,N#Cc1c(Nc2ccccc2)nn(Cc2ccccc2)c1N,139 to 140
19,Cc1noc(NS(=O)(=O)c2ccccc2-c2ccc(-c3ncco3)cc2CN2CCN(c3ccccc3)C2=O)c1C,140 to 150
20,Nc1c(-c2csc(-c3ccncc3)n2)c(=O)[nH]c2ccc(N3CCCCC3)cc12,199 to 202
21,CC(C)(C)c1cc(NC(=O)c2cccn2-c2ccc(N)cc2)cc(C(C)(C)C)c1O,218 to 219
22,COc1ccc2c(c1)c(Cc1cc(=O)n(-c3ccc(Cl)c(Cl)c3)[nH]1)c(C)n2C(=O)c1ccc(Cl)cc1,123 to 125
23,C#Cc1ccc([C@H]2CC[C@H](CCCCC)CC2)nn1,114 to 116
24,CC(=O)SC(CC(=O)c1ccc(Sc2ccc(C)cc2)cc1)C(=O)O (stereo not given),127 to 129

row,SMILES,melting point [°C]
1,CC(=O)NC[C@H]1CN(c2ccc(N3CCN(c4ccc(C=O)o4)CC3)c(F)c2)C(=O)O1,176
2,CCOC(=O)C(N=CC1C=C(Cl)C=CC1(OC(C)=O)c1ccccc1)C(=O)OCC (stereo not given),85 to 87
3,CN1CCN(C(=O)COc2cccc(-n3nc(-c4ccc(F)cc4)c4cccnc43)c2)CC1,132 to 135
4,O=C(Nc1cccc(S(=O)(=O)NCc2ccccc2)c1)c1cnn2c(C(F)(F)F)cc(-c3ccc(C(F)(F)F)cc3)nc12,227
5,O=S(=O)(NCc1ccnc2ccccc12)c1ccc(Cc2ccccc2)cc1,106 to 107
6,CC(=O)OCc1nc2cc(Cl)c(C)cc2c(=O)[nH]1,220 to 225
7,CP(=O)(O)CC(=O)CN,148 to 149
8,O=S(CCN1C=CC=CC=C1)c1ccccc1 (stereo not given),195
9,Cc1c(Cc2ccc(C(C)C)cc2)c2c(c(C)c1NC(=O)CC(C)(C)C)CC(C)(CN1CCCC1)O2 (stereo not given),143 to 144
10,O=C1NCc2c1c1c(c3[nH]c4ccccc4c23)Cc2ccc(Br)cc2-1,> 340
11,CCCc1nc(N2CCOCC2)nc(N(CCOC(C)=O)C(C)=O)n1,49 to 50
12,CC(=O)Nc1ccc(OCC(O)CNC(C)(C)C)c(-c2nnco2)c1 (stereo not given),157 to 160
13,CCOC(=O)c1c(N2CC3CC2CN3)c2cc(C)ccc2n(Cc2ccccc2)c1=O (stereo not given),> 72
14,FC(F)(F)c1ccc(-c2[nH]c(=S)[nH]c2-c2ccc(C(F)(F)F)cc2)cc1,312 to 315
15,CSc1ccc(-c2cc(-c3nc4ccccc4c(=O)n3-c3cccc(C)c3)sc2N2CCOCC2)cc1,220 to 221
16,CC(CCl)=NNC1=Nc2ccc(Cl)cc2C(c2ccccc2)=NC1,210 to 227
17,C[C@@H]1CN(c2cccc(-c3cn[nH]c3N)c2)C[C@H](C)O1,158 to 160
18,CCOC(=O)Nc1cc(Cl)nc(NC(=O)OCC)n1,153 to 154
19,CCOC(=O)c1cc(CCC2CNc3nc(NC(=O)C(C)(C)C)nc(O)c3C2)[nH]n1 (stereo not given),235 to 237
20,CCCOc1c(-c2ccccc2)nn(C)c1-c1ccccc1,56 to 57
21,NC(=O)c1ncn(C2OC(COC(=O)c3ccccc3)C(O)C2O)n1 (stereo not given),182 to 184
22,O=C(NC(=S)NC1Cc2ccccc2C1)c1ccccc1,130 to 135
23,CCOc1ccccc1C=[N+]([O-])C1CCCC1,87.3
24,N#CCCN(CCC#N)CCN(CCC#N)CCC#N,63 to 65

row,SMILES,melting point [°C]
1,O=C(Nc1cccc(F)n1)c1cc(-c2ccc(O)cc2)nc2ccccc12,210 to 212
2,Cc1ccccc1NC(=O)Nc1ccc(CC(=O)N2CCN(C(C)C(=O)O)C(=O)C2Cc2ccccc2)cc1 (stereo not given),103 to 105
3,OC(c1ccc(Cl)cc1)(c1cccnc1)c1ccc2noc(-c3cccc(Cl)c3)c2c1 (stereo not given),199
4,Nc1ccccc1-c1ccc(C(O)CCC(=O)O)cc1 (stereo not given),102 to 103
5,COC(=O)C1=C(c2ccc3c(c2)OCO3)c2ccc(OCc3ccccc3)cc2C1=O,140 to 141
6,COC(=O)CCCc1cc2nc(Cl)ccc2n1S(=O)(=O)c1cccc(OC)c1,90
7,CCCc1cc2cc(OC)ccc2[nH]1,49 to 50
8,CCCCCCCCCCc1ccc2cc(SC)c(OC)cc2c1,49.5 to 50.4
9,CCCCOC(=O)COCCCNC(=O)[C@H](C)NC(=O)OCc1ccccc1,54 to 55
10,CC(O)c1cccc2c1OCO2 (stereo not given),45 to 46
11,O=C(NC1CCCCC1)C12CC3CC(CC(C3)C1)C2,199 to 200
12,CC(C)(C)c1cc(-c2cncn2CCCO)cc(C(C)(C)C)c1O,166 to 167
13,COc1ccc(C=C(C)[N+](=O)[O-])c(OC)c1,80 to 81
14,O=[N+]([O-])c1cccc(-c2cccc([N+](=O)[O-])n2)n1,206 to 207
15,CN1CCCC1Cc1ccc(N)cc1 (stereo not given),59 to 61
16,CCOC(=O)c1cn(CC)c2cc(-c3csc(CN(CC)C(C)=O)n3)c(F)cc2c1=O,160 to 161
17,c1ccc(Nc2nc[nH]c3ncc(-c4ccccc4)c2-3)cc1,208 to 209
18,COc1c(C)c2c(c(O)c1CC=C(C)CC(C)C(=O)O)C(=O)OC2 (stereo not given),122 to 123
19,O=C(O)C1=CCC2CC(=O)C12 (stereo not given),52 to 56
20,COC(=O)c1ccccc1OS(=O)(=O)N(C)C,75.5 to 76.5
21,CCON=C(C(C)=NOCc1ccccc1C(=NOC)C(=O)NC)c1ccc(OCc2cccc(C(F)(F)F)c2)cc1,130 to 132
22,COC(=O)CCCC#Cc1cc(Cl)ccc1NS(=O)(=O)c1cn(C)cn1,76 to 79

# Reference: a melting point compilation (Tetko et al.; mined from patent text by program, amines drawn as free bases though some values may be those of a salt)
